Assay results reported in patent US9718790B2, “Triazine derivative and pharmaceutical composition having an analgesic activity comprising the same” (SHIONOGI & CO., LTD., priority 2010, dated 2017).
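Also: stimulus was 50 nM ATP with fluorescence followed for 3 min, and the response per well was peak post-ATP fluorescence divided by the reading at measurement start.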

Each molecule was assayed against human P2X3 receptor (Homo sapiens (Human), UniProt P56373) (assay: Evaluation of human P2X3 receptor inhibitory activity (Fluo-3 calcium fluorescence, FDSS 3000, ATP stimulation)). Details: C6BU-1 cells stably expressing human P2X3 receptor.
Chain of human P2X3 receptor (P56373 whole entry): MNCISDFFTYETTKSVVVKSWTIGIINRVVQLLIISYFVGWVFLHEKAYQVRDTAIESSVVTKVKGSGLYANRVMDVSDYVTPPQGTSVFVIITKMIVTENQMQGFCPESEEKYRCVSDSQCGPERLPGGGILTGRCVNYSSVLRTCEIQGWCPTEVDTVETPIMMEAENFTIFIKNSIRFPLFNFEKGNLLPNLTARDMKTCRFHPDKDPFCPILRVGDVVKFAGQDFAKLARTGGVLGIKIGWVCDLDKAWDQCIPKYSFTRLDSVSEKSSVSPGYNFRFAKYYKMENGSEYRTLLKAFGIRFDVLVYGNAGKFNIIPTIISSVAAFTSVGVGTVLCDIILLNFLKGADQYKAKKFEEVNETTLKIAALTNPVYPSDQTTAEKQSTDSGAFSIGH
Assay type: cell-based
Work on `Cc1ccc(Cn2c(=O)n(CCCC(=O)O)c(=O)[nH]/c2=N\c2ccc(Oc3ccncc3)cc2)cc1` [Compound I-1243] yielded an IC50 of 12 nM.
Molecule `CCOC(=O)CCn1c(=O)[nH]/c(=N\c2ccc(OC(C)C)c(C3CC3)c2)n(Cc2ccc(C)cc2)c1=O` [Compound I-1300] has an IC50 of 18 nM.
`O=c1[nH]/c(=N\c2ccc(Oc3cc(CO)on3)cc2)n(Cc2ccc(Cl)cc2)c(=O)n1CCO` [Compound I-2118] gave an IC50 of 35 nM.
`CCCc1ccc(/N=c2\[nH]c(=O)n(C[C@H](C)C(=O)O)c(=O)n2Cc2ccc(Cl)cc2)cc1OC` [Compound I-1354] was tested, and the IC50 was 139 nM.
For `COc1cc(Cn2c(=O)[nH]/c(=N\c3ccc(OC(C)C)c(F)c3)n(Cc3ccc(Cl)cc3)c2=O)ccn1` [Compound I-0642], the IC50 was 5 nM.
For `COC(=O)C(C)(C)Cn1c(=O)[nH]/c(=N\c2ccc(OC(C)C)c(OC)c2)n(Cc2ccc(C)cc2)c1=O` [Compound I-1272], the IC50 was 7 nM.
Work on `COc1cc(/N=c2\[nH]c(=O)n(CCC(=O)O)c(=O)n2Cc2ccc(C)cc2)ccc1OC(C)C` [Compound I-1264] yielded an IC50 of 31 nM.
In the case of `CC(C)Cc1ccc(/N=c2\[nH]c(=O)n([C@H](C)[C@H](C)C(=O)O)c(=O)n2Cc2ccc(Cl)cc2)cc1Cl` [Compound I-1445], the IC50 is reported as 4 nM.
With `O=c1[nH]/c(=N\c2ccc(Oc3cncc(CO)c3)cc2)n(Cc2ccc(Cl)cc2)c(=O)n1CCOC1CCCCO1` (stereo not shown) [Compound I-2077] the IC50 was 3 nM.
Work on `CC1(C)OCC(Cn2c(=O)[nH]/c(=N\c3ccc4nc(C5CC5)sc4c3)n(Cc3ccc(Cl)cc3)c2=O)CO1` [Compound I-1982] yielded an IC50 of 9 nM.
With `Cc1ccc(Cn2c(=O)n(C[C@H](C)C(=O)O)c(=O)[nH]/c2=N\c2cnc(OC3CCCC3)c(Cl)c2)cc1` [Compound I-1477] the IC50 was 68 nM.
`Cc1ccc(Cn2c(=O)n([C@@H](C)[C@@H](C)C(=O)O)c(=O)[nH]/c2=N\c2ccc(OCC(C)C)cc2)cc1` [Compound I-1387] was tested, and the IC50 was 44 nM.
`CCn1c(=O)[nH]/c(=N\c2ccc(Oc3ccnc(C(=O)NC)c3)cc2)n(Cc2ccc(F)cc2)c1=O` [Compound I-2110] showed an IC50 of 12 nM.
`COC(=O)CCCCn1c(=O)[nH]/c(=N\c2ccc3nc(C)sc3c2)n(Cc2ccc(C)cc2)c1=O` [Compound I-2155] was tested, and the IC50 was 4 nM.
In the case of `CCCc1ccc(/N=c2\[nH]c(=O)n(CCC(=O)OCC)c(=O)n2Cc2ccc(C)cc2)cc1C` [Compound I-1215], the IC50 is reported as 27 nM.
`COC(=O)[C@@H](C)Cn1c(=O)[nH]/c(=N\c2ccc3c(c2)COCO3)n(Cc2ccc(Cl)cc2)c1=O` [Compound I-0744] gave an IC50 of 53 nM.
For `Cc1ccc(Oc2ccc(/N=c3\[nH]c(=O)n(CC(=O)NCCO)c(=O)n3Cc3ccc(Cl)cc3)cc2)cn1` [Compound I-1980], the IC50 was 7 nM.
`CCOC(=O)CCn1c(=O)[nH]/c(=N\c2ccc(Oc3cccnc3)cc2)n(Cc2ccc(Cl)cc2)c1=O` [Compound I-1204] was tested, and the IC50 was 5 nM.
`CCCOc1ccc(/N=c2\[nH]c(=O)n(C[C@H](C)C(=O)O)c(=O)n2Cc2ccc(Cl)cc2)cc1C` [Compound I-0711] gave an IC50 of 40 nM.
`COC(=O)[C@@H](C)[C@@H](C)n1c(=O)[nH]/c(=N\c2ccc(CC(C)C)c(Cl)c2)n(Cc2ccc(C)cc2)c1=O` [Compound I-1439] showed an IC50 of 39 nM.
`Cc1cc(/N=c2\[nH]c(=O)n([C@@H]3CN[C@H](C(=O)O)C3)c(=O)n2Cc2ccc(Cl)cc2)ccc1OC(C)C` [Compound I-0716] showed an IC50 of 102 nM.
`CCOc1ccc(/N=c2\[nH]c(=O)n(C[C@@H](C)C(=O)OC)c(=O)n2Cc2ccc(Cl)cc2)cc1Cl` [Compound I-0590] was tested, and the IC50 was 4 nM.

Same assay, conditions: C6BU-1 cells stably expressing human P2X3 receptor, Fluo-3 fluorescence, FDSS 3000
With `Cc1cc(/N=c2\[nH]c(=O)n(CC(CO)CO)c(=O)n2Cc2ccc(Cl)cc2)ccc1OC(C)C` [Compound I-1905] the IC50 was 5 nM.
`NC(=O)Cn1c(=O)[nH]/c(=N\c2ccc(Oc3ccc(O)nc3)cc2)n(Cc2ccc(Cl)cc2)c1=O` [Compound I-1900] showed an IC50 of 16 nM.
In the case of `CCc1nc2ccc(/N=c3\[nH]c(=O)n(CCCNC(C)=O)c(=O)n3Cc3ccc(Cl)cc3)cc2s1` [Compound I-1613], the IC50 is reported as 6 nM.
`COC(=O)[C@@H](C)Cn1c(=O)[nH]/c(=N\c2ccc(OC(C)C)c(C#N)c2)n(Cc2ccc(Cl)cc2)c1=O` [Compound I-0953] was tested, and the IC50 was 42 nM.
In the case of `C[C@@H](C(=O)O)[C@H](C)n1c(=O)[nH]/c(=N\c2ccc3oc4c(c3c2)CCCCC4)n(Cc2ccc(Cl)cc2)c1=O` [Compound I-1747], the IC50 is reported as 201 nM.
`Cc1ccc(Cn2c(=O)n(C[C@H](C)C(=O)O)c(=O)[nH]/c2=N\c2ccc(OC(C)C)c(Br)c2)cc1` [Compound I-0909] was tested, and the IC50 was 7 nM.
`Cc1nc2ccc(/N=c3\[nH]c(=O)n(CCC(CO)CO)c(=O)n3Cc3ccc(Cl)cc3)cc2s1` [Compound I-1853] was tested, and the IC50 was 4 nM.
`COC(=O)CC1(Cn2c(=O)[nH]/c(=N\c3ccc(OC(C)C)c(C)c3)n(Cc3ccc(Cl)cc3)c2=O)CC1` [Compound I-0978] showed an IC50 of 13 nM.
With `C[C@@H](C(=O)O)[C@H](C)n1c(=O)[nH]/c(=N\c2ccc3[nH]ncc3c2)n(Cc2ccc(Cl)cc2)c1=O` [Compound I-1743] the IC50 was 861 nM.
`Cc1ccc(Cn2c(=O)n(C[C@H](C)CO)c(=O)[nH]/c2=N\c2ccc(CC(C)C)c(Cl)c2)cc1` [Compound I-1579] gave an IC50 of 7 nM.
`COC(=O)[C@H](C)[C@H](C)n1c(=O)[nH]/c(=N\c2ccc(OC(C)C)cc2)n(Cc2ccc(C)cc2)c1=O` [Compound I-1081] showed an IC50 of 30 nM.

Same assay, conditions: human P2X3 receptor, Test Example 1
`CCn1c(=S)[nH]/c(=N\c2ccc(Oc3cncc(C(=O)OC)c3)cc2)n(Cc2ccc(Cl)cc2)c1=O` [Compound I-2262, 1-(4-chlorobenzyl)-3-ethyl-6-[4-(5-methoxycarbonyl-3-pyridyloxy)phenylimino]-4-thioxo-1,3,5-triazinane-2-one] gave an IC50 of 17 nM.
With `Cc1ccc(Cn2c(=O)n(CCC(=O)O)c(=O)[nH]/c2=N\c2ccc(Oc3cccc(C#N)n3)cc2)cc1` [Compound I-2634] the IC50 was 11 nM.
For `CCn1c(=O)[nH]/c(=N\c2ccc(Oc3ccc(NC(C)=O)nc3)cc2)n(Cc2ccc(Cl)cc2)c1=O` [Compound I-2241], the IC50 was 1 nM.
With `COC(=O)c1cncc(Oc2ccc(/N=c3\[nH]c(=O)n(C4COC4)c(=O)n3Cc3ccc(Cl)cc3)cc2)c1` [Compound I-2332] the IC50 was 218 nM.
`CCn1c(=O)[nH]/c(=N\c2ccc3nc(OCC(=O)O)sc3c2)n(Cc2ccc(Cl)cc2)c1=O` [Compound I-2326] showed an IC50 of 108 nM.
`Cc1ccc(Cn2c(=O)n(C)c(=O)[nH]/c2=N\c2ccc(Oc3ccc(C(N)=O)cn3)cc2)cc1` [Compound I-2464] was tested, and the IC50 was 10 nM.
`Cc1cnc(Oc2ccc(/N=c3\[nH]c(=O)n(C[C@H](O)CO)c(=O)n3Cc3ccc(Cl)cc3)cc2)s1` [Compound I-2513] showed an IC50 of 6 nM.
Work on `Cc1ccc(Cn2c(=O)n(C)c(=O)[nH]/c2=N\c2ccc(Oc3cncc(C(=O)O)n3)cc2)cc1` [Compound I-2475] yielded an IC50 of 12 nM.
`O=c1[nH]/c(=N\c2ccc(Oc3ccn[nH]3)cc2)n(Cc2ccc(Cl)cc2)c(=O)n1C[C@H](O)CO` [Compound I-2453] gave an IC50 of 64 nM.
For `Cc1nc2ccc(/N=c3\[nH]c(=O)n(CC4(C(=O)O)CC4)c(=O)n3Cc3ccc(Cl)cc3)cc2s1` [Compound I-1552], the IC50 was 15 nM.
For `Cc1cc(/N=c2\[nH]c(=O)n(CC3(C(=O)O)COC3)c(=O)n2Cc2ccc(Cl)cc2)ccc1OC(C)C` [Compound I-1481], the IC50 was 39 nM.
Molecule `CCn1c(=O)[nH]/c(=N\c2ccc(Oc3cc(C(=O)O)sn3)cc2)n(C[C@H]2CC[C@H](C)CC2)c1=O` [Compound I-2349] has an IC50 of 4 nM.
`CCn1c(=O)[nH]/c(=N\c2ccc(Oc3cccc(C(N)=O)n3)cc2)n(Cc2ccc(F)cc2)c1=O` [Compound I-2495] gave an IC50 of 21 nM.
